Experimental data as given in US20080057136A1, “Disinfecting Composition and Methods of Making and Using Same” (priority 2003, published 2008).
Values after ≈ are worked out from the molar mass of the structure shown. Values joined by “and” are separate entries in the source; they are usually repeats but may differ in a detail not shown here. Equal entries are not always repeated.

Tests used:
T. rubrum ATCC 28188 [1] = test: NCCLS broth microdilution MIC and MFC (Example 10); format: cell-based, Trichophyton rubrum; settings: Example 10; for MIC: 80% reduction in growth, amphotericin B complete inhibition; for fungicidal activity: MFC within 1 doubling dilution of the MIC
Procedure: (§4) Strains of E. coli (ATCC 11229), D. aeruginosa (ATCC 15442), S. aureus (ATCC 25923), S. epidermidis (ATCC 12228), S. pyogenes (ATCC 19615), C. albicans (ATCC 10231), and T. rubrum (ATCC 28188) were used as “challenge microorganisms” in this study. Strains were removed from frozen stock and subcultured twice on blood agar to ensure that the strains had optimal growth and metabolic status before testing.
(§5) Amphotericin B, fluconazole, and Hibiclens were added as comparative agents in the fungal panels.
(§6) For testing purposes, AMC, AMC components, and Hibiclens were diluted to 50% of the working solution to cover the proposed AMC use dilution of 20%.
(§7) Microtiter panels were created on the day of MIC testing. A 50 μl aliquot of Mueller-Hinton broth (for bacterial strains) or RPMI 1640 (for fungal strains) was delivered to each well, except those in column one of the microtiter panel. The working solution of AMC and each of its components, and comparative agents were delivered to the designated wells in column one. AMC, components, and comparators were serially diluted across the panel. A 50 μl aliquot of bacterial or fungal suspension was then added to each well on the microtiter panel, using a new pipette tip for each aliquot. Panels were incubated at 35° C. for 16-20 h for the E. coli, P. aeruginosa, and S. aureus strains, 20-24 h for the S. pyogenes strain, and 48 h for the C. albicans strain. T. rubrum panels were incubated for 3 to 4 days before MICs were read. […] Fungal MICs (%) were read using an 80% reduction in the growth endpoint relative to the turbidity of the growth control for AMC, its components, and fluconazole. For amphotericin B, the endpoint was read as the complete inhibition of growth.
(§8) MFCs were determined in a similar manner.
(§9) The endpoint for amphotericin B was read as complete inhibition of growth. The MIC % is expressed as g/100 ml or ml/100 ml. […] The MFC % is expressed as g/100 ml or ml/100 ml.

[2] = test system: Trichophyton rubrum (ATCC 28188); test: Time-Kill test (Example 9); format: cell-based; settings: Study 506-103
Procedure: (§10) A panel of “challenge microorganisms,” including select bacteria, yeast, and fungi was used to assess the disinfecting properties of test compounds, e.g., AMC (DPT Laboratories). […] The procedure was based on the ASTM procedure entitled, “Standard Test Method for the Assessment of Microbial Activity of Test Materials Using Time-Kill Procedure.”
(§11) A single lot of test material was prepared at various concentrations, along with multiple compounds prepared in various concentrations and combinations. These test materials were tested in duplicate against various bacteria, yeast and fungi. To minimize potential buffer interference and to minimize reduction of antimicrobial activity, the volume of the inoculum added to the test material was maintained at, or below, 1% of the total volume of the test. Samples were removed at various contact times. Serial dilutions were performed, and duplicate aliquots were plated. The plates were then incubated, and the average colony forming units (CFU) recovered per milliliter were determined for each contact time. The contact times for the test compounds with S. aureus, E. coli, P. aeruginosa, and C. albicans were 30 sec, 1 min, and 5 min. The contact times for the test compounds with B. subtilis were 1 and 10 min, 1 h, 2 h, 3 h, and 24 h. The contact times for the test compounds with T. rubrum were 30 sec, 1 min and 10 min. The contact temperature was ambient room temperature (20-21° C.).
The fungus, T. rubrum, was inoculated onto Emmon's agar (EA) and incubated at 25-30° C. for 10-15 days. The mycelial mats from mature cultures were removed from the surface of at least 5 plates and macerated with sterile saline (SS) in a sterile glass tissue grinder. The suspension was filtered through sterile glass wool to remove the hyphae.
The density of the conidial suspension was determined by serially diluting the prepared culture in BPDW. Aliquots from selected dilutions were plated on duplicate EA plates. The plates were incubated for 3-5 days at 25-30° C. and then each plate was examined for enumeration.
The suspension was stored at 2-10° C. for 4 weeks before use. On the day of testing, the suspension was adjusted to yield approximately 5.0×10^8 CFU by dilution with BPDW.
(§12) Compliant with the ASTM procedure cited above, the challenge microorganism was added to the test material by dispensing 99 ml of the test material into two sterile flasks, each containing a stir bar. The reaction flasks were allowed to equilibrate to the test temperature for at least 10 minutes. The flasks were placed in water baths on stir plates and maintained at the test temperature with stirring. A 1 ml aliquot of the prepared inoculum of the challenge microorganism was added to each flask to begin the contact period. At each contact time, 1 ml aliquot samples were removed and added to tubes containing 9 ml PBDW+. Serial 10-fold dilutions of each sample were then prepared in PBDW dilution blanks. Duplicate aliquots from selected dilutions were plated using the appropriate agar.
(§13) Upon completion of all contact periods, all plates were inverted and incubated for the appropriate time and temperature as follows: bacteria and yeast were incubated over 2 nights at 37° C.±2° C., and the fungus was incubated for at least 5 nights at 25-30° C. Following incubation, all plates were removed, the colonies were counted and the CFU recovered per ml at each contact time were calculated.

T. rubrum ATCC 28188 [3] = test: NCCLS broth microdilution MIC and MFC (Example 11); format: cell-based, Trichophyton rubrum; settings: Example 11; for fungicidal activity: MFC within 1 doubling dilution of the MIC
Procedure: (§14) Strains of C. albicans (ATCC 10231) and T. rubrum (ATCC 28188) were tested in this study. Strains were removed from frozen stock and subcultured twice on blood agar to ensure that the strains had optimal growth and metabolic status before testing. Strains were tested by NCCLS broth microdilution (M27-A2, 2002) and challenged with AMC solution and its individual components […] ), and isopropanol. Amphotericin B, fluconazole, terbinafine, and Hibiclens were added as comparator compounds. […] Microtiter panels were created on the day of MIC testing. A 50 μl aliquot of RPMI 1640 was delivered to each well except those in column one of the microtiter panel. The working solution of AMC and each of its components, and comparative agents were delivered to the designated wells in column one; AMC, components, and comparators were serially diluted across the panel. A 50 μl aliquot of fungal suspension was then added to each well on the microtiter panel, using a new pipette tip for each aliquot. […] For amphotericin B, the endpoint was read as the complete inhibition of growth. […] MFCs were performed to determine the concentration at which ≧99% of the starting fungal inoculum was killed. […] After incubation, colony counts for each panel well plated were recorded. […] The endpoint for amphotericin B was read as complete inhibition of growth.

T. rubrum = test: MIC and MBC determination by doubling dilutions (Study 509-102); format: cell-based, Trichophyton rubrum
Text: (§1) Table 2 below indicates the stock dilutions for each test agent, and a breakdown of the resulting concentrations for each of the doubling dilutions performed is summarized in Table 3.
(§2) From the stock dilutions, an initial 1:10 dilution was made (representing tube 1), followed by doubling dilutions (tubes 2-12), as detailed in Table 3.

C. albicans ATCC 10231 [4] = test: NCCLS broth microdilution MIC and MFC (Example 10); format: cell-based, Candida albicans; settings: for MIC: amphotericin B complete inhibition; for fungicidal activity: MFC within 1 doubling dilution of the MIC
Procedure: as §4, §5, §6, §7, §8, §9

C. albicans ATCC 10231 [5] = test: NCCLS broth microdilution MIC and MFC (Example 11); format: cell-based, Candida albicans; settings: for MIC: amphotericin B complete inhibition, terbinafine 50%/90%; for fungicidal activity: MFC within 1 doubling dilution of the MIC
Procedure: as §14

[6] = test system: Candida albicans (ATCC 10231); test: Time-Kill test (Example 9); format: cell-based; settings: Study 506-103
Procedure: as §10, §11
Bacteria and C. albicans from stock cultures were transferred into trypticase soya broth (TSB) and incubated for 18-24 hours at 37° C.±2° C. A second transfer was made onto Trypticase Soya Agar (TSA). The plate was removed from incubation and the growth was washed from the agar surface with Butterfield's Phosphate Buffered Dilution Water (PBDW). The microbe concentration was measured using a spectrophotometric technique well-known in the art. The suspension was subsequently adjusted to contain approximately 10^8 colony forming units (CFU) per ml. • 2.
as §12, §13
For each challenge microorganism, 99 ml of PBDW was dispensed into a sterile flask, and a 1 ml aliquot of prepared inoculum was added to the flask with stirring.

C. albicans = test: MIC and MBC determination by doubling dilutions (Study 509-102); format: cell-based; settings: Candida albicans, Inoculum Counts: 6.6 × 10^5
Text: as §1, §2

[7] = test system: S. epidermidis ATCC 12228; test: NCCLS broth microdilution MIC and MBC (Example 10); format: cell-based, Staphylococcus epidermidis
Procedure: as §4
(§15) Hibiclens (industry comparator) and ciprofloxacin were added to the bacterial panel. Amphotericin B, fluconazole, and Hibiclens were added as comparative agents in the fungal panels.
as §6
(§16) Microtiter panels were created on the day of MIC testing. A 50 μl aliquot of Mueller-Hinton broth (for bacterial strains) or RPMI 1640 (for fungal strains) was delivered to each well, except those in column one of the microtiter panel. The working solution of AMC and each of its components, and comparative agents were delivered to the designated wells in column one. AMC, components, and comparators were serially diluted across the panel. A 50 μl aliquot of bacterial or fungal suspension was then added to each well on the microtiter panel, using a new pipette tip for each aliquot. Panels were incubated at 35° C. for 16-20 h for the E. coli, P. aeruginosa, and S. aureus strains, 20-24 h for the S. pyogenes strain, and 48 h for the C. albicans strain.
(§17) The 10 μl samples were plated on to blood agar and incubated at 35° C. for 24 h (E. coli and P. aeruginosa) or 48 h (S. aureus, S. epidermidis, and S. pyogenes). After incubation, colony counts for each panel well plated were recorded.
(§18) The MIC % is expressed as g/100 ml or ml/100 ml. […] The MBC % is expressed as g/100 ml or ml/100 ml.

E. coli ATCC 11229 = test: NCCLS broth microdilution MIC and MBC (Example 10); format: cell-based, Escherichia coli; settings: % as g/100 ml or ml/100 ml
Procedure: as §4, §15, §6, §16, §17, §18

P. aeruginosa ATCC 15442 = test: NCCLS broth microdilution MIC and MBC (Example 10); format: cell-based, Pseudomonas aeruginosa; settings: Example 10
Procedure: as §4, §15, §6, §16, §17, §18

S. pyogenes ATCC 19615 = test: NCCLS broth microdilution MIC and MBC (Example 10); format: cell-based, Streptococcus pyogenes; settings: Example 10
Procedure: as §4, §15, §6, §16, §17, §18

E. coli (strain 1257) = test: Time-kill test, initial studies (death time); format: cell-based, Escherichia coli
Text: (§3) Time-kill tests were used to measure the disinfecting property of test compounds, e.g., microbiocidal or sporicidal compositions, using select bacterial challenge microorganisms such as the vegetative forms of, e.g., E. coli (strain 1257) S. aureus (strain 906), and Bacillus cereus (strain 96).

S. aureus (strain 906) = test: Time-kill test, initial studies (death time); format: cell-based, Staphylococcus aureus
Text: as §3

[8] = test system: Staphylococcus aureus (ATCC 25923); test: Time-Kill test (Example 9); format: cell-based; settings: Study 509-101; at 30 seconds
Procedure: A panel of “challenge microorganisms,” including select bacteria, yeast, and fungi was used to assess the disinfecting properties of test compounds, e.g., AMC (DPT Laboratories). Specifically, the disinfectant property of test compounds were tested against Staphylococcus aureus (ATCC 25923); Staphylococcus epidermidis (ATCC 12228); Bacillus subtilis (ATCC 19659); Escherichia coli (ATCC 11229); and Pseudomonas aeruginosa (ATCC 15442) bacteria, as well as the yeast Candida albicans (ATCC 10231), and the fungus Trichophyton rubrum (ATCC 28188). The test procedure incorporated the recommendations described in the “Manual of Clinical Microbiology,” 5th ed., edited by A. B. Balows et al., ASM, Washington, as directed by the Federal Register, June 1994. […]
A single lot of test material was prepared at various concentrations, along with multiple compounds prepared in various concentrations and combinations. […] The plates were then incubated, and the average colony forming units (CFU) recovered per milliliter were determined for each contact time. […]
Bacteria and C. albicans from stock cultures were transferred into trypticase soya broth (TSB) and incubated for 18-24 hours at 37° C.±2° C. […] The microbe concentration was measured using a spectrophotometric technique well-known in the art. […]

S. aureus ATCC 25923 = test: NCCLS broth microdilution MIC and MBC (Example 10); format: cell-based, Staphylococcus aureus; settings: Example 10
Procedure: as §4, §15, §6, §16, §17, §18

[9] = 80% reduction in growth, amphotericin B complete inhibition
[10] = Study 509-102, Inoculum Counts: 3.6 × 10^8
[11] = Trichophyton rubrum, ATCC28188, read-out: MFC
[12] = Candida albicans, ATCC10231, 80% reduction in growth, read-out: MIC
[13] = Candida albicans, ATCC10231, read-out: MFC
[14] = Trichophyton rubrum, Study 509-102, Inoculum Counts: 3.6 × 10^8
[15] = 80% reduction in growth endpoint

C[C@@H]1[C@H](O)[C@@H](C)/C=C/C=C/C=C/C=C/C=C/C=C/C=C/[C@H](O[C@@H]2O[C@H](C)[C@@H](O)[C@H](N)[C@@H]2O)C[C@@H]2O[C@](O)(C[C@@H](O)C[C@@H](O)[C@H](O)CC[C@@H](O)C[C@@H](O)CC(=O)O[C@H]1C)C[C@H](O)[C@H]2C(=O)O [Amphotericin B]
MIC (T. rubrum ATCC 28188 [1]): 0.25 µg/mL (≈ 0.271 µM)
MFC (T. rubrum ATCC 28188 [1]; 99.9% inhibition of growth): 0.5 µg/mL (≈ 0.541 µM)
fungicidal activity (T. rubrum ATCC 28188 [1]): Fungicidal activity was observed
Log10 Reduction ([2]; 30 sec. contact): 1.0 Log10
CFUs recovered per milliliter of T. rubrum culture ([2]; 30 sec. contact, initial 1.0 × 10^6 CFU/ml, Amphotericin B 2.5 mg/L): 1.0 × 10^5 CFU/ml and 1.1 × 10^5 CFU/ml
CFUs recovered per milliliter of T. rubrum culture ([2]; 60 sec. contact): 6.9 × 10^4 CFU/ml and 8.7 × 10^4 CFU/ml
Log10 Reduction ([2]; 60 sec. contact): 1.2 Log10 and 1.1 Log10
Log10 Reduction ([2]; 10 min. contact): 1.0 Log10
MFC (T. rubrum ATCC 28188 [3]): 0.5 µg/mL (≈ 0.541 µM)
MIC (T. rubrum ATCC 28188 [3]; [9]): 0.25 µg/mL (≈ 0.271 µM)
fungicidal activity (T. rubrum ATCC 28188 [3]): Fungicidal activity was observed
MBC (ppm) (T. rubrum; [10]): >0.25 ppm
MIC (ppm) (T. rubrum; [10]): >0.25 ppm
MIC Against T. rubrum (T. rubrum; Table 23, row head prints μg/mL): >0.25 µg/mL
MIC (C. albicans ATCC 10231 [4]; 80% reduction in growth): 0.12 µg/mL (≈ 0.13 µM)
MFC (C. albicans ATCC 10231 [4]; 99.9% inhibition of growth): 0.12 µg/mL (≈ 0.13 µM)
fungicidal activity (C. albicans ATCC 10231 [4]): Fungal activity
MFC (C. albicans ATCC 10231 [5]): 0.5 µg/mL (≈ 0.541 µM)
MIC (C. albicans ATCC 10231 [5]; 80% reduction in growth): 0.25 µg/mL (≈ 0.271 µM)
fungicidal activity (C. albicans ATCC 10231 [5]): Fungicidal activity

OC(Cn1cncn1)(Cn1cncn1)c1ccc(F)cc1F [Fluconazole]
Log10 Reduction ([6]; 30 sec. contact): <1.0 Log10
CFUs recovered per milliliter of C. albicans culture ([6]; 30 sec. contact, initial 3.0 × 10^7 CFU/ml, Fluconazole 2 mg/ml): 3.0 × 10^6 CFU/ml
CFUs recovered per milliliter of C. albicans culture ([6]; 60 sec. contact): 3.0 × 10^6 CFU/ml
Log10 Reduction ([6]; 60 sec. contact): <1.0 Log10
CFUs recovered per milliliter of C. albicans culture ([6]; 5 min. contact): 3.0 × 10^6 CFU/ml
Log10 Reduction ([6]; 5 min. contact): <1.0 Log10
fungicidal activity (T. rubrum ATCC 28188 [1]): did not demonstrate fungicidal activity
MIC (T. rubrum ATCC 28188 [1]; Trichophyton rubrum, ATCC28188, read-out: MIC): 2 µg/mL (≈ 6.53 µM)
MFC (T. rubrum ATCC 28188 [1]; Trichophyton rubrum, ATCC28188, 99.9% inhibition of growth, read-out: MFC): 8 µg/mL (≈ 26.1 µM)
fungicidal activity (T. rubrum ATCC 28188 [3]): did not demonstrate fungicidal activity
MIC (T. rubrum ATCC 28188 [3]; Trichophyton rubrum, ATCC28188, 80% reduction in growth, amphotericin B complete inhibition, read-out: MIC): 2 µg/mL (≈ 6.53 µM)
MFC (T. rubrum ATCC 28188 [3]; [11]): 64 µg/mL (≈ 209 µM)
MIC (C. albicans ATCC 10231 [4]; [12]): 0.5 µg/mL (≈ 1.63 µM)
MFC (C. albicans ATCC 10231 [4]; Candida albicans, ATCC10231, 99.9% inhibition of growth, read-out: MFC): 2 µg/mL (≈ 6.53 µM)
fungicidal activity (C. albicans ATCC 10231 [4]): not considered fungicidal
MIC (C. albicans ATCC 10231 [5]; [12]): 0.5 µg/mL (≈ 1.63 µM)
MFC (C. albicans ATCC 10231 [5]; [13]): 1 µg/mL (≈ 3.27 µM)
fungicidal activity (C. albicans ATCC 10231 [5]): Fungicidal activity

Clc1ccc(COC(Cn2ccnc2)c2ccc(Cl)cc2Cl)c(Cl)c1 (stereo not shown) [Miconazole]
MBC (T. rubrum; [14]): 0.25 µg/mL (≈ 0.601 µM)
MIC (T. rubrum; [14]): 0.25 µg/mL (≈ 0.601 µM)
MBC (C. albicans): 2 µg/mL (≈ 4.81 µM)
MIC (C. albicans): 2 µg/mL (≈ 4.81 µM)

CN(C/C=C/C#CC(C)(C)C)Cc1cccc2ccccc12 [Terbinafine]
fungicidal activity (T. rubrum ATCC 28188 [3]): did not demonstrate fungicidal activity
MIC (T. rubrum ATCC 28188 [3]; Trichophyton rubrum, ATCC28188, read-out: MIC (μg/ml), read at 50% inhibition of growth, terbinafine, 50% reading): 0.008 µg/mL (≈ 0.0275 µM)
MIC (T. rubrum ATCC 28188 [3]; Trichophyton rubrum, ATCC28188, read-out: MIC (μg/ml), read at 90% inhibition of growth, terbinafine, 90% reading): 0.032 µg/mL (≈ 0.11 µM)
MFC (T. rubrum ATCC 28188 [3]; [11]): 0.125 µg/mL (≈ 0.429 µM)
MIC (C. albicans ATCC 10231 [5]; 80% reduction in growth): >0.5 µg/mL
MIC (C. albicans ATCC 10231 [5]; [12]): > 0.5 µg/mL
MFC (C. albicans ATCC 10231 [5]; [13]): > 0.5 µg/mL
fungicidal activity (C. albicans ATCC 10231 [5]): Fungicidal activity

O=C(O)CN(CCN(CC(=O)O)CC(=O)O)CC(=O)O.[Zn] [ZnEDTA, ethylenediaminotetraacetate zinc complex]
MCB (μg/ml) [7]: (>25000) μg/ml
MCB, % ([7]; % as g/100 ml or ml/100 ml): >2.5%
MIC, % ([7]; % as g/100 ml or ml/100 ml): 1.3%
MIC, % (E. coli ATCC 11229): 2%
MIC, % (T. rubrum ATCC 28188 [1]; [15]): 0.08%
MIC (T. rubrum ATCC 28188 [1]): 800 µg/mL
MFC (T. rubrum ATCC 28188 [1]; 99.9% inhibition of growth): 3000 µg/mL
MFC, % (T. rubrum ATCC 28188 [1]; 99.9% inhibition of growth): 0.3%
fungicidal activity (T. rubrum ATCC 28188 [1]): did not demonstrate fungicidal activity
MBC (P. aeruginosa ATCC 15442): 80000 µg/mL
MBC, % (P. aeruginosa ATCC 15442; % as g/100 ml or ml/100 ml): 8%
MIC, % (P. aeruginosa ATCC 15442; % as g/100 ml or ml/100 ml): 2%
bactericidal activity (P. aeruginosa ATCC 15442; MBC within one doubling dilution of the MIC): did not meet the definition of bactericidal
MFC (T. rubrum ATCC 28188 [3]): 6000 µg/mL
MFC, % (T. rubrum ATCC 28188 [3]): 0.6%
MIC, % (T. rubrum ATCC 28188 [3]; [15]): 0.04%
MIC (T. rubrum ATCC 28188 [3]; [9]): 400 µg/mL
fungicidal activity (T. rubrum ATCC 28188 [3]): did not demonstrate fungicidal activity
MBC (μg/ml) (S. pyogenes ATCC 19615): (13000) μg/ml
MBC, % (S. pyogenes ATCC 19615; % as g/100 ml or ml/100 ml): 1.3%
MIC, % (S. pyogenes ATCC 19615; % as g/100 ml or ml/100 ml): 1.3%
Death time of test-microorganisms (min) E. coli (E. coli (strain 1257); Conc. 0.1 %): >30 min
Death time of test-microorganisms (min) E. coli (E. coli (strain 1257); Conc. 5.0 %): >30 min
MIC, % (C. albicans ATCC 10231 [4]; [15]): 0.15%
MIC (C. albicans ATCC 10231 [4]; 80% reduction in growth): 1500 µg/mL
MFC (C. albicans ATCC 10231 [4]; 99.9% inhibition of growth): 1500 µg/mL
MFC, % (C. albicans ATCC 10231 [4]; 99.9% inhibition of growth): 0.15%
fungicidal activity (C. albicans ATCC 10231 [4]): Fungal activity
Death time of test-microorganisms (min) S. aureus (S. aureus (strain 906); Conc. 0.1 %): >30 min
Death time of test-microorganisms (min) S. aureus (S. aureus (strain 906); Conc. 5.0 %): >30 min
reduction of S. aureus count [8]: ineffective
MBC (μg/ml) (S. aureus ATCC 25923): (>25000) μg/ml
MBC, % (S. aureus ATCC 25923; % as g/100 ml or ml/100 ml): >2.5%
MIC, % (S. aureus ATCC 25923; % as g/100 ml or ml/100 ml): 1.3%
MFC (C. albicans ATCC 10231 [5]): 13000 µg/mL
MFC, % (C. albicans ATCC 10231 [5]): 1.3%
MIC, % (C. albicans ATCC 10231 [5]; [15]): 0.08%
MIC (C. albicans ATCC 10231 [5]; 80% reduction in growth): 800 µg/mL
